The record followed here is patent publication US11583494B2, “Pharmaceutical composition for nasal administration” (MEDILABO RFP, INC., priority 2017, dated 2023).

Series [1] relates to APP OSK mouse. The series can be described thus: Behavior test: space reference memory of mouse, Morris water maze. Format: in vivo. Particulars: 1 month. As to the method:
(§1) Male APP OSK mice (Tomiyama et al. J Neurosci. 2010; 30:4845-56) aged 11 months were prepared. APP OSK mice weigh about 30 g. The 60 APP OSK mice were classified into five groups A to E, each containing 12 mice. Separately, 12 wild-type mice (non-Tg littermate) of the same age in month were prepared.
(§2) Administration was performed without anesthesia using a rodent oral sonte for oral administration, a Pipetman (white tip) for nasal administration, and an injection syringe for subcutaneous administration.
The behavior test was performed by measuring space reference memory of mouse using a Morris water maze according to the method of Umeda et al. Brain 2016; 139:1568-86.

Series [2] is described as follows: Impaired liver function: hepatic enzymes AST (GOT) and ALT (GPT) in serum. In kind it is in vivo, mouse. The note with it: 1 month. As to the method:
as §1, §2
Blood was sampled from mice after end of the behavior test, and serum was separated from the blood to prepare a serum sample. Hepatic enzymes AST (GOT) and ALT (GPT) in the serum sample were measured, and the degree of impaired liver function by rifampicin was compared.

Series [3] deals with T1, Aβ oligomers (Homo sapiens, UniProt P05067, DEL693-693).
T1 construct: from tissue; host or cells: brain (hippocampus) of APP OSK transgenic mice
Format: in vivo, mouse. The method, then:
as §1, §2
According to the procedure described in Umeda et al. Brain 2016; 139:1568-86, Aβ oligomers (Aβ oligomers are considered to cause phosphorylation of tau and reduction in synaptophysin), synaptophysin (marker protein of synapse), and phosphorylated tau were stained by immunohistological staining. For staining Aβ oligomers, 11A1 antibody (available from Immune-Biological laboratories Co., Ltd.) was used, and for staining synaptophysin, SVP-38 antibody (available from Sigma) was used. Mouse monoclonal PHF-1 antibody (anti p-Ser396/404-tau antibody, provided by Dr. Peter Davies, Albert Einstein College of Medicine) was used for staining phosphorylated tau. After staining, Aβ oligomers, synaptophysin, and phosphorylated tau were quantified by using NIH image-J.

The target in series [4] is T2, Aβ (Homo sapiens, UniProt P05067).
T2 construct: Rifampicins have the action of suppressing formation of oligomers of amyloid β, tau, and α synuclein
The series can be described thus: Formation of oligomers in vitro, Aβ. In kind it is biochemical.

In series [5] the test system is tau. Kind of series: Formation of oligomers in vitro, tau. Format: biochemical.
Series [6] addresses α synuclein (Homo sapiens, UniProt P37840). Kind of series: Formation of oligomers in vitro, α synuclein. Format: biochemical.
In series [7] the test system is AD model mouse. Kind of series: Oral administration to AD model mouse in which Aβ accumulates. In kind it is in vivo.
Series [8] has as its system FTD model mouse. The series can be described thus: Oral administration to FTD model mouse in which tau accumulates. In kind it is in vivo.

Consider `CO[C@H]1/C=C/O[C@@]2(C)Oc3c(C)c(O)c4c(O)c(c(/C=N/N5CCN(C)CC5)c(O)c4c3C2=O)NC(=O)/C(C)=C\C=C\[C@H](C)[C@H](O)[C@@H](C)[C@@H](O)[C@@H](C)[C@H](OC(C)=O)[C@@H]1C` [Rifampicin, 3-(4-methylpiperazinyliminomethyl)rifamycin SV], for which the “Ameliorating effect on disturbance of memory (FIG. 1)” value in series [1] (Example 2: nasal, 0.05 mg/day) is “reached to the same level as in wild-type mouse”. In series [1] (Example 2: nasal, dosage one-fifth (0.05 mg/day)), the “Ameliorating effect on disturbance of memory compared with oral administration (Comparative Example 1, […])” value is “higher than the case of oral administration”. In series [1] (any of oral, nasal and subcutaneous administration, APP OSK mice), the “Amelioration of disturbance of memory (FIG. 1)” value was “amelioration of disturbance of memory of APP OSK mouse was confirmed”. Besides, the “Elevation of AST in comparison with CMC-administered APP OSK mouse” value in series [2] (Example 2: nasal, 0.05 mg/day) is recorded as “Slight elevation”. For the same compound, in series [2] (any administration method (oral, nasal, subcutaneous)), the “Change of ALT” value is “no significant change was observed”. Moreover, in series [3] (Example 1: nasal, […], versus oral and subcutaneous […]), the “Effect of reducing Aβ oligomers in comparison for the same dosage (FIG. 3)” value was “highest”. Further, the “Quantification of Aβ oligomers (FIG. 3)” value in series [3] (any of oral (Comparative Example 1), nasal (Example 1, Example 2), subcutaneous (Reference Example 3)) is reported as “reduced to at least the same level as that in wild-type mouse”. Besides, the “Formation of oligomers of Aβ” value in series [4] is “suppresses formation of oligomers”. For the same compound, the “Formation of oligomers of tau” value in series [5] is on record as “suppresses formation of oligomers”. Besides, the “Formation of oligomers of α synuclein” value in series [6] is listed as “suppresses formation of oligomers”. The “Cognitive function of mouse” value in series [7] and in series [8] was “recovery of the cognitive function” throughout.
